The values below are quoted from earlier work in paper PMC13128454, “Mutant p53 protein accumulation is selectively targetable by proximity-inducing drugs” (Nature Chemical Biology, 2025).

A word on the IC50: it is the midpoint of a concentration-inhibition curve.

The data set relates to cancer cell lines across DepMap. Also noted: method as in DepMap. Conditions: antiproliferative; GDSC1; ref DepMap; read-out: median IC50 across DepMap; cited from earlier work.

`CC[C@@H]1C(=O)N(C)c2cnc(Nc3ccc(C(=O)NC4CCN(C)CC4)cc3OC)nc2N1C1CCCC1` [BI2536]: the IC50 is 11.8 nM.
